≈ marks a conversion by molar mass, not a printed value. Where two headings read alike, the source gives them in different places.
Tests used:
Strep. A = test: Agar Dilution MIC (Table I); format: cell-based; conditions: read-out: Agar Dilution MIC
Strep. PN = test: Agar Dilution MIC (Table I); format: cell-based; conditions: strain PARK
Strep. D = test: Agar Dilution MIC (Table I); format: cell-based; conditions: read-out: Agar Dilution MIC
Source text: (§1) A typical and preferred compound provided by this invention is 7-(3-benzothienyl)glycylamido-3-methyl-3-cephem-4-carboxylic acid, the compound illustrated in Example 9. The antibacterial activity of this compound has been determined in standard in vitro agar dilution assays against a variety of gram positive and gram negative microorganism. The following Tables present typical minimum inhibitory concentrations (MIC's) in μg/ml for several compounds of the invention when evaluated against the indicated microorganisms. MIC's for several known compounds are also presented for comparison.
Agar Dilution MIC (μg/ml)

H. influ. = test: Agar Dilution MIC (Table I); format: cell-based; conditions: read-out: Agar Dilution MIC
E. coli = test: Agar Dilution MIC (Table I); format: cell-based; conditions: Escherichia coli
Klebsiella = test: Agar Dilution MIC (Table I); format: cell-based; conditions: Klebsiella, read-out: Agar Dilution MIC
H. influenzae = test: Expanded Spectrum MIC (Table II); format: cell-based; conditions: Haemophilus influenzae
Source text: as §1
(§2) Expanded Spectrum MIC (μg/ml)

Staph. aureus = test: Expanded Spectrum MIC (Table II); format: cell-based; conditions: Staphylococcus aureus
Source text: as §1, §2

Bacteroides corrodens = test: Susceptibility of Anaerobic Bacteroides Isolates by the Agar-Dilution Method (Table III); format: cell-based; conditions: Eikenella corrodens; strain 1874; readings 24 hrs. after incubation
Source text: as §1
(§3) Susceptibility of Anaerobic Bacteroides Isolates by the
(§4) Agar-Dilution Method MIC (μg/ml) readings 24 hrs. after incubation

Bacteroides fragilis [1] = test: as above; format: cell-based; conditions: 24 h
Source text: as §1, §3, §4

[2] = system: Bacteroides thetaiotaomicron; test: as above; format: cell-based; conditions: 24 h
Source text: as §1, §3, §4

Bacteroides fragilis [3] = test: Expanded anaerobic Spectrum MIC (Table IV); format: cell-based
Haemophilus influenzae = test: Expanded H. influenzae Spectrum MIC (Table IV); format: cell-based
[4] = system: β-lactamase, organism 265A; test: Stability to β-lactamase (Table V); format: biochemical; conditions: lower numbers mean greater stability
[5] = system: β-lactamase, organism PS185; test: Stability to β-lactamase (Table V); format: biochemical; conditions: lower numbers mean greater stability
[6] = system: β-lactamase, organism TEM; format: biochemical; conditions: lower numbers mean greater stability
[7] = system: β-lactamase, organism 1082E; test: Stability to β-lactamase (Table V); format: biochemical; conditions: lower numbers mean greater stability
[8] = system: β-lactamase, organism 1313G; test: Stability to β-lactamase (Table V); format: biochemical; conditions: lower numbers mean greater stability
bacteria = test: Antibacterial activity (general statements); format: cell-based; conditions: anaerobic bacteria and Haemophilus influenzae, more strains
[9] = mean over strains, read-out: MIC mean

CC1=C(C(=O)O)N2C(=O)C(NC(=O)C(N)c3csc4ccccc34)C2SC1 (stereo not drawn) [Ex. 9, 7-(3-Benzothienyl)glycylamido-3-methyl-3-cephem-4-carboxylic acid]
MIC (Strep. A): 0.125 µg/mL (≈ 0.31 µM)
MIC (Strep. PN): 0.5 µg/mL (≈ 1.24 µM)
MIC (Strep. D; strain 2041): 64 µg/mL (≈ 159 µM)
MIC (Strep. D; strain X66): 128 µg/mL (≈ 317 µM)
MIC (H. influ.; strain 76): 0.5 µg/mL (≈ 1.24 µM)
MIC (H. influ.; strain C.L.): 2 µg/mL (≈ 4.96 µM)
MIC (E. coli; strain EC14): 32 µg/mL (≈ 79.3 µM)
MIC (E. coli; strain N10): 128 µg/mL (≈ 317 µM)
MIC (E. coli; strain TEM): 32 µg/mL (≈ 79.3 µM)
MIC (Klebsiella; strain KAE): 128 µg/mL (≈ 317 µM)
MIC (Klebsiella; strain X26): 2 µg/mL (≈ 4.96 µM)
MIC (Klebsiella; strain X68): 128 µg/mL (≈ 317 µM)
MIC (H. influenzae; strain 76): 1 µg/mL (≈ 2.48 µM)
MIC (H. influenzae; strain 105): 1 µg/mL (≈ 2.48 µM)
MIC (H. influenzae; strain 158): 1 µg/mL (≈ 2.48 µM)
MIC (H. influenzae; strain 164): 1 µg/mL (≈ 2.48 µM)
MIC (H. influenzae; strain 169): 1 µg/mL (≈ 2.48 µM)
MIC (H. influenzae; strain 171): 1 µg/mL (≈ 2.48 µM)
MIC (H. influenzae; strain 312): 1 µg/mL (≈ 2.48 µM)
MIC (H. influenzae; strain 1683): 0.5 µg/mL (≈ 1.24 µM)
MIC (H. influenzae; strain 1930): 1 µg/mL (≈ 2.48 µM)
MIC (H. influenzae; strain 4842): 1 µg/mL (≈ 2.48 µM)
MIC (H. influenzae; strain C.L.): 2 µg/mL (≈ 4.96 µM)
MIC (H. influenzae; strain HESS): 1 µg/mL (≈ 2.48 µM)
MIC (H. influenzae; strain M366): 64 µg/mL (≈ 159 µM)
MIC (H. influenzae; strain M370): 1 µg/mL (≈ 2.48 µM)
MIC (H. influenzae; strain M371): 1 µg/mL (≈ 2.48 µM)
MIC (H. influenzae; strain R465): 64 µg/mL (≈ 159 µM)
MIC (H. influenzae; strain STEL): 64 µg/mL (≈ 159 µM)
MIC (Staph. aureus; strain S224): 1 µg/mL (≈ 2.48 µM)
MIC (Staph. aureus; strain S225): 1 µg/mL (≈ 2.48 µM)
MIC (Staph. aureus; strain S226): 2 µg/mL (≈ 4.96 µM)
MIC (Staph. aureus; strain S227): 1 µg/mL (≈ 2.48 µM)
MIC (Staph. aureus; strain S228): 1 µg/mL (≈ 2.48 µM)
MIC (Staph. aureus; strain S229): 2 µg/mL (≈ 4.96 µM)
MIC (Staph. aureus; strain S230): 1 µg/mL (≈ 2.48 µM)
MIC (Staph. aureus; strain S231): 1 µg/mL (≈ 2.48 µM)
MIC (Staph. aureus; strain S234): 2 µg/mL (≈ 4.96 µM)
MIC (Staph. aureus; strain S237): 1 µg/mL (≈ 2.48 µM)
MIC (Staph. aureus; strain S238): 2 µg/mL (≈ 4.96 µM)
MIC (Staph. aureus; strain S239): 2 µg/mL (≈ 4.96 µM)
MIC (Bacteroides corrodens): 32 µg/mL (≈ 79.3 µM)
MIC (Bacteroides fragilis [1]; strain 9, readings 24 hrs. after incubation): 4 µg/mL (≈ 9.91 µM)
MIC (Bacteroides fragilis [1]; strain 103, readings 24 hrs. after incubation): 32 µg/mL (≈ 79.3 µM)
MIC (Bacteroides fragilis [1]; strain 104, readings 24 hrs. after incubation): 4 µg/mL (≈ 9.91 µM)
MIC (Bacteroides fragilis [1]; strain 106, readings 24 hrs. after incubation): 4 µg/mL (≈ 9.91 µM)
MIC (Bacteroides fragilis [1]; strain 107, readings 24 hrs. after incubation): 8 µg/mL (≈ 19.8 µM)
MIC (Bacteroides fragilis [1]; strain 108, readings 24 hrs. after incubation): 4 µg/mL (≈ 9.91 µM)
MIC (Bacteroides fragilis [1]; strain 110, readings 24 hrs. after incubation): 8 µg/mL (≈ 19.8 µM)
MIC (Bacteroides fragilis [1]; strain 111, readings 24 hrs. after incubation): 64 µg/mL (≈ 159 µM)
MIC (Bacteroides fragilis [1]; strain 1877, readings 24 hrs. after incubation): 8 µg/mL (≈ 19.8 µM)
MIC ([2]; strain 1438, readings 24 hrs. after incubation): 4 µg/mL (≈ 9.91 µM)
MIC ([2]; strain 1900A, readings 24 hrs. after incubation): 16 µg/mL (≈ 39.7 µM)
MIC (Bacteroides fragilis [3]; geometric mean over strains, read-out: MIC Geometric mean): 0.7 µg/mL (≈ 1.73 µM)
MIC (Bacteroides fragilis [3]; [9]): 1.2 µg/mL (≈ 2.97 µM)
MIC (Bacteroides fragilis [3]; strain 180-821, read-out: MIC): 0.5 µg/mL (≈ 1.24 µM)
MIC (Bacteroides fragilis [3]; strain 10668, read-out: MIC): 0.5 µg/mL (≈ 1.24 µM)
MIC (Bacteroides fragilis [3]; strain 10683, read-out: MIC): 0.5 µg/mL (≈ 1.24 µM)
MIC (Bacteroides fragilis [3]; strain 10695, read-out: MIC): 0.5 µg/mL (≈ 1.24 µM)
MIC (Bacteroides fragilis [3]; strain 10732, read-out: MIC): 0.5 µg/mL (≈ 1.24 µM)
MIC (Bacteroides fragilis [3]; strain 10750, read-out: MIC): 8 µg/mL (≈ 19.8 µM)
MIC (Bacteroides fragilis [3]; strain 10774, read-out: MIC): 1 µg/mL (≈ 2.48 µM)
MIC (Bacteroides fragilis [3]; strain 10817, read-out: MIC): 0.5 µg/mL (≈ 1.24 µM)
MIC (Bacteroides fragilis [3]; strain 10837, read-out: MIC): 0.5 µg/mL (≈ 1.24 µM)
MIC (Bacteroides fragilis [3]; strain 107266, read-out: MIC): 0.5 µg/mL (≈ 1.24 µM)
MIC (Bacteroides fragilis [3]; strain 107268, read-out: MIC): 2 µg/mL (≈ 4.96 µM)
MIC (Bacteroides fragilis [3]; strain 108133, read-out: MIC): 0.5 µg/mL (≈ 1.24 µM)
MIC (Haemophilus influenzae; geometric mean over strains, read-out: MIC Geometric Mean): 1.1 µg/mL (≈ 2.73 µM)
MIC (Haemophilus influenzae; [9]): 2.1 µg/mL (≈ 5.2 µM)
MIC (Haemophilus influenzae; strain 101, read-out: MIC): 1 µg/mL (≈ 2.48 µM)
MIC (Haemophilus influenzae; strain 102): 16 µg/mL (≈ 39.7 µM)
MIC (Haemophilus influenzae; strain 103, read-out: MIC): 0.5 µg/mL (≈ 1.24 µM)
MIC (Haemophilus influenzae; strain 105, read-out: MIC): 0.5 µg/mL (≈ 1.24 µM)
MIC (Haemophilus influenzae; strain 107, read-out: MIC): 1 µg/mL (≈ 2.48 µM)
MIC (Haemophilus influenzae; strain 108, read-out: MIC): 2 µg/mL (≈ 4.96 µM)
MIC (Haemophilus influenzae; strain 109, read-out: MIC): 1 µg/mL (≈ 2.48 µM)
MIC (Haemophilus influenzae; strain 110, read-out: MIC): 0.5 µg/mL (≈ 1.24 µM)
MIC (Haemophilus influenzae; strain 111, read-out: MIC): 0.5 µg/mL (≈ 1.24 µM)
MIC (Haemophilus influenzae; strain 112, read-out: MIC): 2 µg/mL (≈ 4.96 µM)
MIC (Haemophilus influenzae; strain 113, read-out: MIC): 0.5 µg/mL (≈ 1.24 µM)
MIC (Haemophilus influenzae; strain 114, read-out: MIC): 2 µg/mL (≈ 4.96 µM)
Stability to β-lactamase [4]: 14
Stability to β-lactamase [5]: 25
Stability to β-lactamase [6]: 3
Stability to β-lactamase [7]: 25
Stability to β-lactamase [8]: 210
potency compared to known antibiotics (bacteria): much more potent than those with which it was compared

Source: US4492693A, “Benzothienylglycyl cephalosporin derivatives” (priority 1983, dated 1985)
